According to PMC9586938, “Picomolar fluorescent probes for compound affinity determination to carbonic anhydrase IX expressed in live cancer cells” (Scientific Reports, 2022):

Assays:
CAII = biological target: T1, CAII (Homo sapiens, UniProt P00918); experiment: Thermal shift assay (TSA), recombinant CAII; format: binding; conditions: 37 °C, pH 7.0, observed (not intrinsic)
T1 construct: made in house; host or cells: E. coli
Procedure: (§1) The binding affinities of all fluorescein-containing compounds were determined for all 12 catalytically active CA isozymes by the thermal shift assay (TSA). […] However, the SFA technique cannot determine the affinities lower than the enzyme concentration used in the assay. […] In addition, we used isothermal titration calorimetry (ITC), the standard assay to determine affinity and enthalpy of protein–ligand binding. […] Therefore, ITC was used only to determine the enthalpy of interaction and confirm the ordering of compound affinities.
(§2) All twelve catalytically active human CA isozymes were prepared recombinantly as previously described. Isozymes CAIX, CAXII, and CAXIV were the catalytic domains of the proteins[14],[38]. All isozymes were expressed in E. coli except CAIX that has been prepared in mammalian cells. The proteins were chromatographically purified on ion-exchange or benzene sulfonamide containing affinity columns. Protein MW was confirmed by mass spectrometry with 1 Da precision as predicted from gene sequence.
(§3) Compound affinities for the twelve catalytically active CA isozymes were determined by the thermal shift assay as previously described[30],[39]. Protein solutions containing 1,8-anilinonaphthalenesulfonate fluorescent probe were heated from 25 to 100 °C at a rate of one degree per minute while following the fluorescence of the probe. The temperature scanning curves provided the melting temperature Tm of the protein. The Tm has a distinct dependence on the concentration of a compound. Stronger binders shift the Tm to a greater extent than the weak binders. The Tm dependencies on compound concentration were fit to obtain the affinity Kd[40].

CAVA = biological target: T2, CAVA (Homo sapiens, UniProt P35218); experiment: Thermal shift assay (TSA), recombinant CAVA; format: binding; conditions: 37 °C, pH 7.0, observed (not intrinsic)
T2 construct: made in house; host or cells: E. coli
Procedure: as §1, §2, §3

CAVB = biological target: T3, CAVB (Homo sapiens, UniProt Q9Y2D0); experiment: Thermal shift assay (TSA), recombinant CAVB; format: binding; conditions: 37 °C, pH 7.0, observed (not intrinsic)
T3 construct: made in house; host or cells: E. coli

CAVI = biological target: T4, CAVI (Homo sapiens, UniProt P23280); experiment: Thermal shift assay (TSA), recombinant CAVI; format: binding; conditions: 37 °C, pH 7.0, observed (not intrinsic)
T4 construct: made in house; host or cells: E. coli
Procedure: as §1, §2, §3

CAXIV = biological target: T5, CAXIV (Homo sapiens, UniProt Q9ULX7); experiment: Thermal shift assay (TSA), recombinant CAXIV; format: binding; conditions: 37 °C, pH 7.0, observed (not intrinsic)
T5 construct: Isozymes CAIX, CAXII, and CAXIV were the catalytic domains of the proteins; made in house; host or cells: E. coli

[1] = biological target: T6, CAIX expressed on HeLa cells (Homo sapiens, UniProt Q16790); experiment: Fluorescein-labeled compound dosing to hypoxia-grown WT HeLa cells (Morrison single-site model); format: cell-based
T6 construct: recombinant CAIX and endogenous CAIX expressed on the cell surface; endogenous in cells; host or cells: HeLa (WT), grown under hypoxia (1% O2)
Procedure: (§4) HeLa cell culture was grown in 12-well plates, either under hypoxia (1% O2) or under normoxia (21% O2), for 70 to 76 h. The medium was removed. Then 200 µL of serially diluted compound (twelve twofold steps) in the FB medium, usually starting at 80 nM (80, 40, 20, …, 0 nM), was added and incubated at 37 ℃ under normoxia in the CO2 incubator for 20 min (2 or 5 min in some experiments where specified). Then the compound solution was removed and the cells were washed 3 times for 1.5–2 min with 400 µL of PBS at RT. Then 180 µL of TrypLe express enzyme (ThermoFisher) was added to each well and incubated in CO2 incubator for 5 min to 10 min until the cells deattached from the surface. After addition of 20 µL of Defined Trypsin Inhibitor solution (ThermoFisher), cells were resuspended by pipetting and 150 µL of the suspension from each well were transferred to black Thermo Scientific™ Nunc MicroWell 96-Well Optical-Bottom Plates for fluorescence and absorbance measurements. The fluorescence was recorded at 485 nm excitation and 520 nm emission wavelengths in the plate reader (Synergy HTX, BioTek). The absorbance was recorded at 650 nm to measure the optical density of the cell suspension.
(§5) The compound solution was prepared by weighing 3–5 mg of a purified compound and dissolving in DMSO at 10 mM concentration. The 1 mM compound stock in DMSO was prepared by taking 10 µL of 10 mM stock and adding to 90 µL DMSO. The 10 µM compound stock was prepared by taking 10 µL of 1 mM compound stock in DMSO and adding 990 µL of the FB medium (this stock contained 1% of DMSO). Then 80 nM compound solution was prepared by taking 10 µL of 10 µM solution and adding 1.24 mL of the FB medium and placed to the first Eppendorf tube. Then 300 µL of FB medium were added to the Eppendorf tubes 2 to 12. A serial dilution was performed by taking 300 µL of solution from tube 1 to 2, then from 2 to 3 and so on while mixing vigorously at each step. No solution was transferred to the last tube thus it contained only FB medium and no compound. Then 200 µL from 12 tubes were transferred to the 12 wells of cell culture-containing 12-well plate, starting from the lowest concentration.
Application of fluorescently labeled ligand GZ19-32 to cancer cells expressing CAIX will stain the cells in dose-dependent manner. The fraction of saturation increases from 0 to 1. The fraction of bound GZ19-32 (f) is equal to the molar concentration of bound GZ19-32 per molar concentration of total available CAIX, the so-called total protein Pt . f=GZ19-32bound/Pt
Upon GZ19-32 dosing, the observed fluorescence signal F can be modeled to change from the minimal background signal ( Fmin ) to maximal saturated value ( Fmax ): F=Fmin+Fmax-Fminf […]

[2] = test system: HeLa CAIX-KO and normoxia-grown WT HeLa cells; experiment: Fluorescein-labeled compound dosing to CAIX-KO and normoxia-grown HeLa cells (non-specific binding); format: cell-based, human
Procedure: as §4, §5
This equation was fit to the dosing curves of several fluorescently-labeled ligands to both the cells grown in hypoxia and in normoxia, both to the WT and CRISPR-Cas9 CAIX knockout cells. The cells bound both the GZ19-32 and GZ20-40 ligands that differed only in the length of the linker and both contained the same head-group. […] Furthermore, the ligands that had their sulfonamide amino group substituted with the methyl completely abandoned their capability of binding CAIX in this concentration region. The binding was also abolished for the CAIX-KO HeLa cells.

[3] = biological target: T7, CAIX expressed on live HeLa cells (Homo sapiens, UniProt Q16790); experiment: Competition of unlabeled compound with 10 nM GZ19-32 on hypoxic HeLa cells (competitive binding model); format: cell-based; conditions: fit parameter of the competitive binding model, HeLa cells; read-out: KdB (competing fluorescent compound, component B)
T7 construct: recombinant CAIX and endogenous CAIX expressed on the cell surface; endogenous in cells; host or cells: HeLa (WT), grown under hypoxia (1% O2)

T5 sequence (Q9ULX7 20-278 limits assumed): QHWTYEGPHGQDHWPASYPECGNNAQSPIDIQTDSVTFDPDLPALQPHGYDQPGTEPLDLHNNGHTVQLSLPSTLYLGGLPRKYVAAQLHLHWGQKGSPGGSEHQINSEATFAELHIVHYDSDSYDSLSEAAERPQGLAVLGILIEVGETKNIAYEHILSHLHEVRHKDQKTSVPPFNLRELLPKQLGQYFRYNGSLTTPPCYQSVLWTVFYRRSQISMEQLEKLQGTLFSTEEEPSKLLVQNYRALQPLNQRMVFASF
T2 sequence (P35218 39-305): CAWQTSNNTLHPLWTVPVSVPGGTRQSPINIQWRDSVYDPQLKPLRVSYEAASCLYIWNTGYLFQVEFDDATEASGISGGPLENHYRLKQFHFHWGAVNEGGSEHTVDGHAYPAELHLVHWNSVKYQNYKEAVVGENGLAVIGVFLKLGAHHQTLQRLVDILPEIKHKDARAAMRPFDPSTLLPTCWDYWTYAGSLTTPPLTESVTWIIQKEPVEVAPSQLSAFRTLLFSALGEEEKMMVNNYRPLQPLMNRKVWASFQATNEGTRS
T3 sequence (Q9Y2D0 34-317): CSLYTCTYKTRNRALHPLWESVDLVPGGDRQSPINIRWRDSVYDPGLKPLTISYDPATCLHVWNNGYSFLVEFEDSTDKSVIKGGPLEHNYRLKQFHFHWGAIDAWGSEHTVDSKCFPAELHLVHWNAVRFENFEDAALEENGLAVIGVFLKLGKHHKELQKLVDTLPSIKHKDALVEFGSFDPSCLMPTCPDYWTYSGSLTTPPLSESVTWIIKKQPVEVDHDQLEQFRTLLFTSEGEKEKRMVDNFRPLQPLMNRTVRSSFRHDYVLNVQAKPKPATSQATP
T4 sequence (P23280 18-308): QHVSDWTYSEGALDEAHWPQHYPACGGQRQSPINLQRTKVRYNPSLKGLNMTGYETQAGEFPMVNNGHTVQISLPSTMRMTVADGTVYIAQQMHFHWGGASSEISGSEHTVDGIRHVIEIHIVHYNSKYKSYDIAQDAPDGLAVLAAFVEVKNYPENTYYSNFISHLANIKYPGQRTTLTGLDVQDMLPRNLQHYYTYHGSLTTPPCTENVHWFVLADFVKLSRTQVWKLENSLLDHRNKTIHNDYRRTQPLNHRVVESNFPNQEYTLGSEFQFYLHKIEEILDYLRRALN

Row | number of bound molecules per HeLa cell ([1]; approximately 80 h of growth under hypoxia) | concentration at which saturation was reached ([1]; hypoxia-grown HeLa cells) | Kd [3] | melting point | Compound | Kd (CAII) | Kd (CAVA) | Kd (CAVB) | Kd (CAVI) | Kd (CAXIV) | binding to hypoxia-grown HeLa cells in the nM concentration region ([1]; same conditions as GZ19-32, up to about 100 nM) | non-specific binding to cells ([2]; micromolar concentration range, Fig. 9B, 9C) | concentration above which compound binds normoxia-grown WT and CAIX-KO HeLa cells ([2]; 5 min incubation, Fig. 9A) | fluorescence of compound bound to HeLa CAIX-KO cells ([2]; CAIX-KO cells grown under hypoxia, 10 nM to 100 nM)
1 | – | – | – | – | 3-((2-(cyclooctylamino)-3,5,6-trifluoro-4-(methylsulfonyl)phenyl)sulfonyl)-N-(3',6'-dihydroxy-3-oxo-3H-spiro[isobenzofuran-1,9'-xanthen]-5-yl)propanamide and 3-((3-(cyclooctylamino)-2,5,6-trifluoro-4-(methylsulfonyl)phenyl)sulfonyl)-N-(3',6'-dihydroxy-3-oxo-3H-spiro[isobenzofuran-1,9'-xanthen]-5-yl)propanamide [GZ20-37] | > 100000 nM | > 100000 nM | > 100000 nM | > 100000 nM | > 100000 nM | did not bind | bound cells in the micromolar concentration range | – | –
2 | exceeded 1 million | approximately 10 nM | 0.2 nM | 189 to 190 °C | NS(=O)(=O)c1c(F)c(F)c(S(=O)(=O)CCC(=O)Nc2ccc3c(c2)C(=O)OC32c3ccc(O)cc3Oc3cc(O)ccc32)c(NC2CCCCCCC2)c1F [GZ19-32, 3-((2-(cyclooctylamino)-3,5,6-trifluoro-4-sulfamoylphenyl)sulfonyl)-N-(3',6'-dihydroxy-3-oxo-3H-spiro[isobenzofuran-1,9'-xanthen]-5-yl)propanamide] | 14 nM | 400 nM | 13 nM | 330 nM | 3.3 nM | – | – | > 100 nM | did not show an increase in fluorescence
